According to patent publication US20230225973A1, “MULTI-LAYERED MEDICAMENT FOR INHALATION” (Mylan Pharma UK Limited, priority 2020, published 2023):

Tests used:
[1] = Aerosolization performance: TIR and FPM from a next generation impactor (NGI), equivalence of MGR001/MGR002 with MGR003; assay type: physicochemical; settings: for FPM, Pass/fail (0.90-1.11) / TIR, Pass/fail (0.90-1.11): 90% CI of ratio of geometric means within 0.90-1.11
Source text: The same batches for MGR002 and MGR003 were utilized in obtaining emitted data used to obtain aerosolization performance information. Table 5 below presents the results and equivalence criteria, respectively for 5-[3-(3-Hydroxyphenoxy)azetidin-1-yl]-5-methyl-2,2-diphenylhexanamide hydrochloride of formula II, fluticasone propionate and salmeterol.
The […] (FPM) and mean total impactor recovery (TIR) from a next generation impactor (NGI) for each batch were equivalent, based on the fact that the upper/lower 90% confidence interval of the ratio of the geometric mean, rested between 0.90 and 1.11. […] The fluticasone propionate and salmeterol xinafoate components of the MGR003 drug product also met the same performance targets as the MGR001 250/50 drug product.

[2] = Comparison of fine particle dose (FPD) performance of blended combination, layer filled combination and baseline products; assay type: physicochemical; settings: FIG. 6; product T3 (low shear triple blend)
Method: The two options were to either: 1) layer fill blends of the individual products or; 2) low shear mix blends of the individual products. The individual products were either 0.58% w/w salmeterol xinafoate/4% w/w fluticasone propionate combination blend or 4.8% w/w 5-[3-(3-Hydroxyphenoxy)azetidin-1-yl]-5-methyl-2,2-diphenylhexanamide hydrochloride blend.
Four products (L1, L2, L3, and T3) were prepared as outline below. Products L1 and L2 were the baseline products for the layer filled combination product L3, and the blended combination product, T3.
The blend is made of 4.8% w/w 5-[3-(3-Hydroxyphenoxy)azetidin-1-yl]-5-methyl-2,2-diphenylhexanamide hydrochloride mixed with lactose monohydrate in a Diosna high shear blender. The nominal dose of 5-[3-(3-Hydroxyphenoxy)azetidin-1-yl]-5-methyl-2,2-diphenylhexanamide hydrochloride per pocket is 264 mcg.
The blend is made of 0.58% w/w salmeterol xinafoate and 4% w/w fluticasone propionate mixed with lactose monohydrate in a Diosna high shear blender. The nominal doses of salmeterol xinafoate and fluticasone propionate per pocket are 72.5 mcg and 500 mcg, respectively.
The salmeterol xinafoate/fluticasone propionate blend is made of 0.58% w/w salmeterol xinafoate and 4% w/w fluticasone propionate mixed with lactose monohydrate in a Diosna high shear blender. The 5-[3-(3-Hydroxyphenoxy)azetidin-1-yl]-5-methyl-2,2-diphenylhexanamide hydrochloride blend is made of 4.8% w/w 5-[3-(3-Hydroxyphenoxy)azetidin-1-yl]-5-methyl-2,2-diphenylhexanamide hydrochloride mixed with lactose monohydrate in a Diosna high shear blender. The nominal doses of salmeterol xinafoate, fluticasone propionate and 5-[3-(3-Hydroxyphenoxy)azetidin-1-yl]-5-methyl-2,2-diphenylhexanamide hydrochloride per pocket are 72.5 mcg, 500 mcg and 264 mcg, respectively.
The triple blend is prepared by mixing with a low shear Turbula mixer, a 0.58% w/w salmeterol xinafoate, 4% w/w fluticasone propionate blend with 4.8% w/w 5-[3-(3-Hydroxyphenoxy)azetidin-1-yl]-5-methyl-2,2-diphenylhexanamide hydrochloride blend in the ratio 12.5:5.5. […]

[3] = FPM from next generation impactor
[4] = mean total impactor recovery, next generation impactor

Row | FPM, ratio of geometric means (MGR002 divided by MGR003) [1, 3] | FPM, Pass/fail (0.90-1.11) ([1]; MGR002 versus MGR003) | TIR, Pass/fail (0.90-1.11) ([1]; MGR002 versus MGR003) | TIR, ratio of geometric means (MGR002 divided by MGR003) [1, 4] | FPD of the individual drug in blended combination product T3 versus baseline product [2] | FPM, ratio of geometric means (MGR001 divided by MGR003) [1, 3] | FPM, Pass/fail (0.90-1.11) ([1]; MGR001 versus MGR003) | TIR, Pass/fail (0.90-1.11) ([1]; MGR001 versus MGR003) | TIR, ratio of geometric means (MGR001 divided by MGR003) [1, 4] | Compound
1 | 0.95 | Pass | Pass | 0.97 | much lower FPD | – | – | – | – | CC(C)(CCC(C(N)=O)(c1ccccc1)c1ccccc1)N1CC(Oc2cccc(O)c2)C1.Cl [5-[3-(3-Hydroxyphenoxy)azetidin-1-yl]-5-methyl-2,2-diphenylhexanamide hydrochloride]
2 | – | – | – | – | slightly lowered FPD | 0.99 | Pass | Pass | 0.96 | CCC(=O)O[C@]1(C(=O)SCF)[C@H](C)C[C@H]2[C@@H]3C[C@H](F)C4=CC(=O)C=C[C@]4(C)[C@@]3(F)[C@@H](O)C[C@@]21C [Fluticasone propionate, fluticasone propionate]
3 | – | – | – | – | more variability | 1.01 | Pass | Pass | 0.97 | OCc1cc(C(O)CNCCCCCCOCCCCc2ccccc2)ccc1O (stereo not drawn) [Salmeterol, salmeterol xinafoate]
